Laboratory results: patent publication US12370193B2, “Method of inhibiting TREM-1” (UNIVERSITY OF FLORIDA RESEARCH FOUNDATION, INCORPORATED, priority 2019, dated 2025)
pEC50, pIC50: −log10 of the molar value.

What was measured:
RORγ = biological target: T1, RORγ (Homo sapiens, UniProt P51449); assay: Gal4-RORγ co-transfection promoter-reporter assay; conditions: cell-based promoter-reporter Gal4 assay format, HEK293T cells
T1 sequence (P51449 269-518 limits assumed): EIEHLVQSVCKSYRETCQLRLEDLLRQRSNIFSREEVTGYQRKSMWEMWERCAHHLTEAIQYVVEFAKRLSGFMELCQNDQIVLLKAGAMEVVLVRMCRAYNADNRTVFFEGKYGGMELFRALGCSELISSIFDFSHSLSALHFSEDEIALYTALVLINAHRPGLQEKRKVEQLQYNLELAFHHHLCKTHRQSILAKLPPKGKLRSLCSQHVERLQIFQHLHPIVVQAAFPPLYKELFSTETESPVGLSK

RORα = assay: Gal4-RORα co-transfection promoter-reporter assay; format: cell-based; conditions: Gal4 assay format
Experimental: (§1) Reporter gene assays: Twenty-four hours before transfection, HEK293T cells were plated in 96-well plates at a density of 15×10^3 cells per well. UAS:luciferase reporter and Ga14-RORa, Gal4-RORb, Gal4-RORγ, Gal4-LXRα, or Gal4 PPARγ DNA co-transfections were performed using X-tremeGENE 9 (Roche). Twenty-four hours after transfection, the cells were treated with vehicle or compound. Twenty-four hours after treatment, the luciferase activity was measured using the Dual-Glo luciferase assay system (Promega). Results were analyzed using GraphPad Prism software.

RORβ = assay: Gal4-RORβ co-transfection promoter-reporter assay; format: cell-based; conditions: Gal4 assay format
Experimental: as §1

LXRα = biological target: T2, LXRα (Homo sapiens, UniProt Q13133); assay: Gal4-LXRα co-transfection promoter-reporter assay; format: cell-based; conditions: HEK293T cells, read-out: LXR agonist activity EC50
T2 sequence (Q13133 209-447 limits assumed): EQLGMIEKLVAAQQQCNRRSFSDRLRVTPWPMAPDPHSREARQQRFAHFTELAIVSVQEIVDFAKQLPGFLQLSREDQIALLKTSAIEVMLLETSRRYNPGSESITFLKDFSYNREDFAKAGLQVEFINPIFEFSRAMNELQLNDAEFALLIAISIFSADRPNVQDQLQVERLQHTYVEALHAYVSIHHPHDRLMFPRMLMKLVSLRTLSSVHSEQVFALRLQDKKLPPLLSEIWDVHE
Description: FIGS. 1A to 1E: Pan modulator with poly-pharmacology. […] FIG. 1D is a graph showing PPARγ target genes (aP2 and CD36) expression in OP9 cells with and without MDI (IBMX, dexamethasone, insulin) treatment. […] SR1903 is represented as orange sticks while PPARγ, RORγ, and LXRβ are depicted as blue ribbons respectively. Specific residues driving the interaction labelled and shown as sticks as well. […] FIG. 1F are graphs showing RORγ target genes (IL17A and IL17F) expression in EL4 cells.
as §1

EL4 cells = assay: RORγ target gene expression in PMA/ionomycin stimulated EL4 cells; format: cell-based; conditions: PMA and ionomycin, compound at 10 μM
Description: FIG. 1D is a graph showing PPARγ target genes (aP2 and CD36) expression in OP9 cells with and without MDI (IBMX, dexamethasone, insulin) treatment. […] Specific residues driving the interaction labelled and shown as sticks as well. […] Quantitative RT-PCR: Total RNA was extracted from EL4 or RAW264.7 cells using RNeasy Plus Micro Kit (Qiagen) and the RNA was reverse transcribed using the ABI reverse transcription kit (Applied Biosystems/Thermo Fisher Scientific, Waltham MA). Quantitative PCR was performed with a 7900HT Fast Real Time PCR System (Applied Biosystems) using SYBR green (Roche).

TREM-1 [1] = assay: TREM-1 gene expression in LPS-stimulated RAW264.7 cells (RNA sequencing, qPCR); format: cell-based, mouse; conditions: 26 hr exposure
Experimental: (§2) FIG. 2B are graphs showing TREM-1 gene expression by q-PCR. […] All experiments were performed with 3 biological replicates and the median value of TREM-1 fluorescence was represented by the graph on the bottom.
Quantitative RT-PCR: Total RNA was extracted from EL4 or RAW264.7 cells using RNeasy Plus Micro Kit (Qiagen) and the RNA was reverse transcribed using the ABI reverse transcription kit (Applied Biosystems/Thermo Fisher Scientific, Waltham MA). Quantitative PCR was performed with a 7900HT Fast Real Time PCR System (Applied Biosystems) using SYBR green (Roche).
mRNA sequencing analysis: RAW264.7 cells RNA extraction protocol for RNA seq was derived from Qiagen Kit-74106. Total RNA was quantified using the Qubit 2.0 Fluorometer (Invitrogen, Carlsbad, CA) and run on the Agilent 2100 Bioanalyzer (Agilent Technologies, Santa Clara, CA) for quality assessment. RNA samples of good quality with RNA Integrity Number (RIN)>8.0 were further processed. A RNase-free working environment was maintained and RNase-free tips, Eppendorf tubes and plates were utilized for the subsequent steps. Messenger RNA was selectively isolated from total RNA (300 ng input) using poly-T oligos attached to magnetic beads and converted to sequence-ready libraries using the TruSeq stranded mRNA sample prep protocol (Cat. #: RS-122-2101, Illumina, San Diego, CA). The final libraries were validated on the bioanalyzer DNA chips and qPCR quantified using primers that recognize the illumina adaptors. The libraries were then pooled at equimolar ratios, quantified using qPCR and loaded onto the NextSeq 500 flow cell at 1.8 pM final concentration. They were sequenced using the high-output, paired-end, 75-bp chemistry. Demultiplexed and quality filtered raw reads (fastq) generated from the NextSeq 500 were trimmed (adaptor sequences) using Flexbar 2.4 and aligned to the mouse reference database (mm9) using TopHat version 2.0.9 (Trapnell et al., 2009). HTseq-count version 0.6.1 was used to generate gene counts and differential gene expression analysis was performed using Deseq2 (Anders and Huber, 2010).

TREM-1 [2] = assay: TREM-1 surface expression by FACS in LPS-stimulated RAW264.7 cells; format: cell-based, mouse; conditions: 50 hr incubation
Experimental: as §2
Flow cytometry and antibodies: For the analysis of macrophage activation, RAW264.7 cells (American Type Culture Collection) were pre-incubated with 5 μM 1903 for 18 h then stimulated with 1 μg/mL LPS (Escherichia coli 0127:B8, Sigma-Aldrich (St. Louis, MO)) for 6 h. RAW264.7 cells were stained with APC conjugated anti-TREM-1 antibody (eBioscience). Cell sorting was performed using LSRII (BD Bioscience).

[3] = system: collagen-induced arthritis; assay: Collagen-induced arthritis (CIA) mouse model; conditions: for enlargement of the liver: CIA mice, 20 mg/kg
Experimental: Clinical score was monitored every day after boosting during 18 days. […] The dosage of all compounds was identical in each group.
Briefly, DBA/1J mice were injected with chicken type II collagen on day 1 and then each animal received a boost injection of collagen on Day 21. Compound treatment, initiated on day 3-post boost injection, was administered intraperitoneally at 20 mg/kg twice-a-day for a total of 16 days. […] Mice: All mice were maintained in a specific pathogen-free environment in accordance with institutional protocol. […] Female DBA/1J mice were purchased from Taconic. CIA was induced in 8 weeks as previously described^40.

[4] = system: collagen-induced arthritis; conditions: Chang et al. (2014); cited from earlier work
TH17 cells = conditions: Chang et al. study; cited from earlier work

| SMILES | pIC50 (RORγ) | activity on RORα (RORα) | activity on RORβ (RORβ) | pEC50 (LXRα) | IL17F expression (EL4 cells) | LPS induction of TREM-1 gene expression (qPCR) (TREM-1 [1]) | LPS-induced TREM1 cell surface expression (TREM-1 [2]) | enlargement of the liver [3] | arthritis clinical score ([3]; Day 34, 20 mg/kg i.p. twice-a-day, vehicle 13.6±2.9) | therapeutic effect in CIA mice [4] | IL-17 and IL-23R expression (TH17 cells) | TH17 cell differentiation (TH17 cells) |
| --- | --- | --- | --- | --- | --- | --- | --- | --- | --- | --- | --- | --- |
| O=C(O)Cc1cccc(OCCCN(Cc2cccc(C(F)(F)F)c2Cl)CC(c2ccccc2)c2ccccc2)c1 [GW3965, reference compound] | 4.37 | lack activity | lack activity | 6.81 | lacked the ability to repress | significantly repressed | only modestly dampened | did not cause enlargement of the liver | only very modest effects | – | – | – |
| OC(c1ccc(-c2ccc(CN3CCN(Cc4ccncc4)CC3)cc2)c(F)c1)(C(F)(F)F)C(F)(F)F [SR2211] | – | – | – | – | – | – | – | – | – | robust therapeutic effect | reduced | inhibited |
| O=S(=O)(c1ccccc1)N(CC(F)(F)F)c1ccc(C(O)(C(F)(F)F)C(F)(F)F)cc1 [T0901317, N-(2,2,2-trifluoroethyl)-N-[4-[2,2,2-trifluoro-1-hydroxy-1-(trifluoromethyl)ethyl]phenyl]-benzenesulfonamide, reference compound] | – | – | – | – | – | – | – | negative effect on liver | – | – | – | – |
